In patent US4185119A, “Antiallergic methods” (priority 1977, dated 1980):
Where a name gives a salt, the structure may show the parent alone.

Columns and labels:
[1] = test system: anaphylactic asthma in guinea-pigs; test: Inhibition test of anaphylactic asthma in guinea-pigs; type: in vivo; settings: intraperitoneal, survived more than 7 minutes
Protocol: (c) Guinea-pig antiserum against egg albumin
A solution of egg albumin (10 mg.) in normal saline (1 ml.) was mixed with incomplete adjuvant (1 ml.) to give an emulsion. The emulsion was given subcutaneously in a single dose of 0.4 ml. divided equally (0.1 ml.) to the four pads of male Hartley strain guinea-pigs, each weighing 350-380 g.
Two weeks after the administration, a solution of egg albumin (1 mg.) in normal saline (1 ml.) was further given subcutaneously in a single dose of 0.4 ml divided equally (0.1 ml.) to the four pads of the same guinea-pigs.
Subsequently, one week and two weeks after the second adminstration, the guinea-pigs were treated in substantially the same manner as the above second administration.
One week after the final administration, blood samples were collected from the guinea-pigs and treated in substantially the same manner as described in the above item (a). The antisera thus obtained were stored at -80° C. prior to use.
(3) Inhibition test of anaphylactic asthma in guinea-pigs
To ten male Hartley strain guinea-pigs, weighing 300 g was given intravenously the guinea-pig antiserum against egg albumin (0.1 ml.), respectively. Twenty four hours after the administration, each of the guinea-pigs was put individually into each of boxes (innercapacity: 5.3 liters). A normal saline containing egg albumine (1%) was continuously sprayed with a nebulizer into the boxes.
Beforehand, one hour and 30 seconds before putting the guinea-pigs into each of the boxes, a normal saline (1 ml.) containing the prescribed amount of N-methylaurotetanine hydrochloride and carboxymethylcellulose (0.5%) was given intraperitoneally to five guinea-pigs and a normal saline (1 ml.) containing only carboxymethylcellulose (0.5%) was given intraperitoneally to each of the remaining 5 guinea-pigs. Time till the test animal was suffocated to death, was measured and when animals survived more than 7 minutes, inhibition of anaphylactic asthma were judged as effective. Survival (%) was calculated by the following formula: [formula]

Acute toxicity in mice = settings: mouse, in vivo, ip; intraperitoneal, male I.C.R. mice, survivals at one week
Protocol: Test: Acute Toxicity in Mice
A normal saline containing each of the test compound mentioned below and 0.5% carboxymethylcellulose was given intraperitoneally to male I.C.R. (Institute of Cancer Research) strain mice aged 5 weeks, weighing 33-35 g. LD50 values were calculated from the survivals of mice at one week after the administration of the test compound.

[2] = test system: P.C.A. reaction in I.C.R. strain mice; test: Inhibition test of P.C.A. reaction in I.C.R. strain mice, rat hyperimmune antiserum against egg albumin; type: in vivo; settings: I.C.R. mouse (Table 3-I)
Protocol: (c) Inhibition test of P.C.A. reaction in I.C.R. (Institute of Cancer Research) strain mice
(i) Test compound: N-methyllaurotetanine hydrochloride
Fifteen male I.C.R. strain mice aged 7 weeks, weighing about 35 g were divided equally into 3 groups. Each of the groups was composed of 5 mice, (in case of intraperioneal administration of the test compound to the mouse, each of the groups was composed of […]).
Ten-hold diluted solution (0.05 ml.) of the rat hyperimmune antiserum against egg albumin was given intracutaneously to the depilated back of each mouse of Group I and Group II, respectively. On the other hand, a rat normal serum (0.05 ml.) was given intracutaneously to the depilated back of each mouse of Group III. Three hours after the administration, a normal saline (0.1 ml.) containing egg albumin (1.5 mg.) and Evans blue (0.5 mg.) was given intravenously to each mouse of Groups I-III in order to bring about P.C.A., respectively.
Beforehand, 3 hours and 1 hours before the admnistration to bring about P.C.A., a normal saline (0.3 ml.) containing the prescribed amount of N-methyllaurotetanine hydrochloride and carboxymethylcellulose (0.5%) was given orally or intraperitoneally to each mouse of Group I, and a normal saline (0.3 ml.) containing only carboxymethylcellulose (0.5%) was given orally or intraperitoneally to each mouse of Group II.
The procedure followed by the above, was carried out in substantially the same manner as described in the above item (2)-(a). […]

COc1cc2c(cc1O)CC1c3c(cc(OC)c(OC)c3-2)CCN1C (stereo not shown) [N-Methyllaurotetanine hydrochloride]
Survival ([1]; 30 mg/kg): 0%
Survival ([1]; 60 mg/kg): 40%
Survival ([1]; 120 mg/kg): 80%
LD50 at 168 h (Acute toxicity in mice): 91.7 mg/kg
Inhibitory effect on P.C.A. reaction ([2]; intraperitoneal, 3 mg/kg): 50%
Inhibitory effect on P.C.A. reaction ([2]; intraperitoneal, 10 mg/kg): 80%
Inhibitory effect on P.C.A. reaction ([2]; intraperitoneal, 30 mg/kg): 95%
Inhibitory effect on P.C.A. reaction ([2]; oral, 16 mg/kg): 20%
Inhibitory effect on P.C.A. reaction ([2]; oral, 48 mg/kg): 50%
Inhibitory effect on P.C.A. reaction ([2]; oral, 145 mg/kg): 70%
